What all share (test): relative viability (nuclei count vs DMSO), 5 days (fraction); higher = more cells survive
Compound in test [1]: C1CC(C1)(C(=O)O)C(=O)O.[NH2-].[NH2-].[Pt+2] [Carboplatin] + CC(=O)c1c(C)c2cnc(Nc3ccc(N4CCNCC4)cn3)nc2n(C2CCCC2)c1=O [Palbociclib] (partner 0.5 µM)
Summed up: (§1)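 Values are medians from duplicate plates. Each reflects relative viability, defined as the nuclei count of treated wells over that of vehicle wells. Lung cancer cell lines in 1536-well plates were pin-tool dosed one day after seeding with one drug alone or with a fixed anchor-drug dose plus five library-drug doses (not always all listed) in √10 steps, then fixed, stained and imaged at 4× after 5 days.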

Compound in the test “Carboplatin + Dasatinib”: C1CC(C1)(C(=O)O)C(=O)O.[NH2-].[NH2-].[Pt+2] [Carboplatin] + Cc1nc(Nc2ncc(C(=O)Nc3c(C)cccc3Cl)s2)cc(N2CCN(CCO)CC2)n1 [Dasatinib] (partner 0.075 µM)
A digest of the protocol: as §1

Compound in the test “GSK126 + OSI-027”: CC[C@H](C)N1C=C(C2=C(C=C(C=C21)C3=CN=C(C=C3)N4CCNCC4)C(=O)NCC5=C(C=C(NC5=O)C)C)C [GSK126] + COc1cccc2cc(-c3nc([C@H]4CC[C@H](C(=O)O)CC4)n4ncnc(N)c34)[nH]c12 [OSI-027] (partner 0.5 µM)
A digest of the protocol:
as §1

Compound in the test “GSK126 + AZD7762”: CC[C@H](C)N1C=C(C2=C(C=C(C=C21)C3=CN=C(C=C3)N4CCNCC4)C(=O)NCC5=C(C=C(NC5=O)C)C)C [GSK126] + NC(=O)Nc1cc(-c2cccc(F)c2)sc1C(=O)N[C@H]1CCCNC1 [AZD7762] (partner 0.2 µM)
A digest of the protocol: as §1

As for LOU-NH91, the relative viability in test [1] (first compound 0.08 µM) stood at 0.539; in test [1] (first compound 0.253 µM), 0.455; in test [1] (first compound 0.8 µM), 0.44; in test [1] (first compound 2.53 µM), 0.507; in test [1] (first compound 8 µM), 0.515; with Carboplatin + Dasatinib (first compound 0.08 µM), 0.674. Moreover, the relative viability with Carboplatin + Dasatinib (first compound 0.253 µM) turned out to be 0.578; in the test with Carboplatin + Dasatinib (first compound 0.8 µM) it was 0.542; with Carboplatin + Dasatinib (first compound 2.53 µM), 0.568; with Carboplatin + Dasatinib (first compound 8 µM), 0.538; with GSK126 + OSI-027 (first compound 0.08 µM) it was 0.728; with GSK126 + OSI-027 (first compound 0.253 µM), 0.735. The relative viability with GSK126 + OSI-027 (first compound 0.8 µM) is 0.751; with GSK126 + OSI-027 (first compound 2.53 µM), 0.681; in the test with GSK126 + OSI-027 (first compound 8 µM), 0.787; with GSK126 + AZD7762 (first compound 0.08 µM) it was 0.789; with GSK126 + AZD7762 (first compound 0.253 µM), 0.737; with GSK126 + AZD7762 (first compound 0.8 µM), 0.714. Moreover, the values for the relative viability with GSK126 + AZD7762 (first compound 2.53 µM) and with GSK126 + AZD7762 (first compound 8 µM) were 0.822 and 0.727, respectively.

Consider LU99A, for which the relative viability in test [1] (first compound 0.08 µM) stood at 0.468; in test [1] (first compound 0.253 µM), 0.392; in test [1] (first compound 0.8 µM), 0.39; in test [1] (first compound 2.53 µM), 0.424; in test [1] (first compound 8 µM) it was 0.314; with Carboplatin + Dasatinib (first compound 0.08 µM), 0.562. The relative viability is 0.559 in the test with Carboplatin + Dasatinib (first compound 0.253 µM); 0.511 with Carboplatin + Dasatinib (first compound 0.8 µM); 0.39 with Carboplatin + Dasatinib (first compound 2.53 µM); 0.384 with Carboplatin + Dasatinib (first compound 8 µM); 0.341 in the test with GSK126 + OSI-027 (first compound 0.08 µM); 0.324 with GSK126 + OSI-027 (first compound 0.253 µM). Besides, the relative viability with GSK126 + OSI-027 (first compound 0.8 µM) is 0.275; with GSK126 + OSI-027 (first compound 2.53 µM), 0.311; in the test with GSK126 + OSI-027 (first compound 8 µM) it was 0.296; with GSK126 + AZD7762 (first compound 0.08 µM), 0.37; in the test with GSK126 + AZD7762 (first compound 0.253 µM), 0.254; in the test with GSK126 + AZD7762 (first compound 0.8 µM) it was 0.338. In addition, the relative viability with GSK126 + AZD7762 (first compound 2.53 µM) was determined as 0.346; with GSK126 + AZD7762 (first compound 8 µM), 0.392.

Regarding LXF-289, the relative viability in test [1] (first compound 0.08 µM) is 0.629; in test [1] (first compound 0.253 µM), 0.59; in test [1] (first compound 0.8 µM), 0.635; in test [1] (first compound 2.53 µM), 0.563; in test [1] (first compound 8 µM) it was 0.583; with Carboplatin + Dasatinib (first compound 0.08 µM) it was 0.327. Moreover, the relative viability in the test with Carboplatin + Dasatinib (first compound 0.253 µM) stood at 0.24; with Carboplatin + Dasatinib (first compound 0.8 µM) it was 0.223; in the test with Carboplatin + Dasatinib (first compound 2.53 µM), 0.264; in the test with Carboplatin + Dasatinib (first compound 8 µM), 0.232; with GSK126 + OSI-027 (first compound 0.08 µM), 0.838; with GSK126 + OSI-027 (first compound 0.253 µM), 0.86. For the same cell line, the relative viability is 0.784 with GSK126 + OSI-027 (first compound 0.8 µM); 0.877 with GSK126 + OSI-027 (first compound 2.53 µM); 0.768 in the test with GSK126 + OSI-027 (first compound 8 µM); 1.16 in the test with GSK126 + AZD7762 (first compound 0.08 µM); 1.11 with GSK126 + AZD7762 (first compound 0.253 µM); 0.956 with GSK126 + AZD7762 (first compound 0.8 µM). Besides, the relative viability with GSK126 + AZD7762 (first compound 2.53 µM) stood at 1.1; with GSK126 + AZD7762 (first compound 8 µM) it was 1.09.

For the cell line NCI-H23, the relative viability in test [1] (first compound 0.08 µM) is 0.453; in test [1] (first compound 0.253 µM) it was 0.513; in test [1] (first compound 0.8 µM) it was 0.513; in test [1] (first compound 2.53 µM) it was 0.461; in test [1] (first compound 8 µM), 0.419; in the test with Carboplatin + Dasatinib (first compound 0.08 µM), 0.918. For the same cell line, the relative viability came out at 0.854 with Carboplatin + Dasatinib (first compound 0.253 µM); 0.673 with Carboplatin + Dasatinib (first compound 0.8 µM); 0.534 in the test with Carboplatin + Dasatinib (first compound 2.53 µM); 0.663 with Carboplatin + Dasatinib (first compound 8 µM); 0.697 with GSK126 + OSI-027 (first compound 0.08 µM); 0.6 with GSK126 + OSI-027 (first compound 0.253 µM). In addition, the relative viability with GSK126 + OSI-027 (first compound 0.8 µM) is 0.668; with GSK126 + OSI-027 (first compound 2.53 µM), 0.682; with GSK126 + OSI-027 (first compound 8 µM), 0.559; in the test with GSK126 + AZD7762 (first compound 0.08 µM), 0.248; with GSK126 + AZD7762 (first compound 0.253 µM), 0.214; with GSK126 + AZD7762 (first compound 0.8 µM) it was 0.208. The results for the relative viability with GSK126 + AZD7762 (first compound 2.53 µM) and in the test with GSK126 + AZD7762 (first compound 8 µM) were 0.29 and 0.205, respectively.

The values are drawn from the supplement of paper PMC10307832.
